In this assay the target is T1, human amylin receptor (Homo sapiens, UniProt O60896+P30988).
T1 construct: host or cells: CHO-K1/Ga15/AMY3 cells, further stably transfected with a CRE-luciferase plasmid
T1 sequence (P30988 25-474): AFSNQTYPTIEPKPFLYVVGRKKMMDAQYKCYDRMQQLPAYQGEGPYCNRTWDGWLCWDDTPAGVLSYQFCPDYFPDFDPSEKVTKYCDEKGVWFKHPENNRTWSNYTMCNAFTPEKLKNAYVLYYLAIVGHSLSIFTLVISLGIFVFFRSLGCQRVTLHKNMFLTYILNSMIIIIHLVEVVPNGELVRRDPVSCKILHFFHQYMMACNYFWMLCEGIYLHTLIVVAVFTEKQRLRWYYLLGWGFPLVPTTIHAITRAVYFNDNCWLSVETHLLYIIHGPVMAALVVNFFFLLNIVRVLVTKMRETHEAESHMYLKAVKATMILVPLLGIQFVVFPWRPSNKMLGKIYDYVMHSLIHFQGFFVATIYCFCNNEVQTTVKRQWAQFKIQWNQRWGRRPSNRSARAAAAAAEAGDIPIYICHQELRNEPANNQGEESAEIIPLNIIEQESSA
T1 sequence (O60896 24-148 partner): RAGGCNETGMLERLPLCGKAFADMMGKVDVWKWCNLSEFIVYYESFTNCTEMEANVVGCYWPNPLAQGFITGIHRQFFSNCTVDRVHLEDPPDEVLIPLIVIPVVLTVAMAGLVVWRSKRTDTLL
The assay is described as follows: Luciferase assay of amylin derivatives in amylin receptor/CRE-luc CHO cell line. The assay is classed as cell-based. The settings on record: CHO-K1/Ga15/AMY3 CRE-luc cells, 24 hours incubation, F12 medium containing 10% FBS; read-out: EC50.

For orientation: EC50 means the concentration that produces a half-maximal response.

Numbered stars: 1 amine (or outer) side, 2 acyl side, 3 side chain; on linkers, the order of the positions; unused ones are H or OH. Bridge positions count the residues as written; N and C are the ends. Square brackets hold non-standard residues; d marks the D form. Side chains are listed from the residue outwards. Peptide text beside a SMILES is read from it. * marks the point of attachment. C20 diacid = O=C(O)CCCCCCCCCCCCCCCCCCC(=O)*; C18 diacid = O=C(O)CCCCCCCCCCCCCCCCC(=O)*; γGlu = O=C(O)[C@H](CCC(=O)[*:2])N[*:1]; Hyp = O=C(O)[C@@H]1C[C@@H](O)CN1; AEEA = NCCOCCOCC(=O)O

Description: The experiment was intended to detect the activity or efficacy of the amylin derivatives on a human amylin receptor in vitro by luciferase assay.
50 μL of growth medium (F12 medium containing 10% FBS) was added into each well of a white 96-well plate, and the stably transfected amylin/CRE-lue CHO cells were inoculated into the white 96-well plate at a density of about 20,000 cells/well for activity determination.

`CC[C@H](C)[C@H](NC(=O)[C@@H]1CCCN1C(=O)[C@H](CCCCNC(=O)CC[C@H](NC(=O)CCCCCCCCCCCCCCCCCCC(=O)O)C(=O)O)NC(=O)[C@H](CC(C)C)NC(=O)[C@H](CC(N)=O)NC(=O)[C@H](CC(N)=O)NC(=O)[C@H](CO)NC(=O)[C@H](CO)NC(=O)[C@H](Cc1c[nH]cn1)NC(=O)[C@H](CCCNC(=N)N)NC(=O)[C@H](CC(C)C)NC(=O)[C@H](Cc1ccccc1)NC(=O)[C@H](CC(=O)O)NC(=O)[C@H](C)NC(=O)[C@H](CC(C)C)NC(=O)[C@H](CCCNC(=N)N)NC(=O)[C@H](CCC(N)=O)NC(=O)[C@@H](NC(=O)[C@H](C)NC(=O)[C@@H]1CSSC[C@H](NC(=O)[C@@H](N)CCCCN)C(=O)N[C@@H](CC(N)=O)C(=O)N[C@@H]([C@@H](C)O)C(=O)N[C@@H](C)C(=O)N[C@@H]([C@@H](C)O)C(=O)N1)[C@@H](C)O)C(=O)N[C@@H](CC(C)C)C(=O)N1CCC[C@H]1C(=O)N1CCC[C@H]1C(=O)N[C@H](C(=O)N[C@@H](CC(N)=O)C(=O)N[C@H](C(=O)NCC(=O)N[C@@H](CO)C(=O)N[C@@H](CC(N)=O)C(=O)N[C@H](C(=O)N1C[C@H](O)C[C@H]1C(N)=O)[C@@H](C)O)C(C)C)[C@@H](C)O` [PD076] (H-KCNTATCATQRLADFLRHSSNNLK([γGlu-C20 diacid])PILPPTNVGSNT[Hyp]-NH2; disulfide 2-7): the EC50 is 0.04 nM. Turning to `CC[C@H](C)[C@H](NC(=O)[C@@H]1CCCN1C(=O)[C@H](CCCCNC(=O)COCCOCCNC(=O)COCCOCCNC(=O)CC[C@H](NC(=O)CCCCCCCCCCCCCCCCC(=O)O)C(=O)O)NC(=O)[C@H](CC(C)C)NC(=O)[C@H](CC(N)=O)NC(=O)[C@H](CC(N)=O)NC(=O)[C@H](CO)NC(=O)[C@H](CO)NC(=O)[C@H](Cc1c[nH]cn1)NC(=O)[C@H](CCCNC(=N)N)NC(=O)[C@H](CC(C)C)NC(=O)[C@H](Cc1ccccc1)NC(=O)[C@H](CC(=O)O)NC(=O)[C@H](C)NC(=O)[C@H](CC(C)C)NC(=O)[C@H](CCCNC(=N)N)NC(=O)[C@H](CCC(N)=O)NC(=O)[C@@H](NC(=O)[C@H](C)NC(=O)[C@@H]1CSSC[C@H](NC(=O)[C@@H](N)CCCNC(=N)N)C(=O)N[C@@H](CC(N)=O)C(=O)N[C@@H]([C@@H](C)O)C(=O)N[C@@H](C)C(=O)N[C@@H]([C@@H](C)O)C(=O)N1)[C@@H](C)O)C(=O)N[C@@H](CC(C)C)C(=O)N1CCC[C@H]1C(=O)N1CCC[C@H]1C(=O)N[C@H](C(=O)N[C@@H](CC(N)=O)C(=O)N[C@H](C(=O)NCC(=O)N[C@@H](CO)C(=O)N[C@@H](CC(N)=O)C(=O)N[C@H](C(=O)N1C[C@H](O)C[C@H]1C(N)=O)[C@@H](C)O)C(C)C)[C@@H](C)O` [PD109] (H-RCNTATCATQRLADFLRHSSNNLK([AEEA-AEEA-γGlu-C18 diacid])PILPPTNVGSNT[Hyp]-NH2; disulfide 2-7), the EC50 is 0.01 nM. Consider `CC[C@H](C)[C@H](NC(=O)[C@@H]1CCCN1C(=O)[C@H](CCCNC(=N)N)NC(=O)[C@H](CC(C)C)NC(=O)[C@H](CC(N)=O)NC(=O)[C@H](CC(N)=O)NC(=O)[C@H](CO)NC(=O)[C@H](CO)NC(=O)[C@H](Cc1c[nH]cn1)NC(=O)[C@H](CCCNC(=N)N)NC(=O)[C@H](CC(C)C)NC(=O)[C@H](Cc1ccccc1)NC(=O)[C@H](CC(=O)O)NC(=O)[C@H](C)NC(=O)[C@H](CC(C)C)NC(=O)[C@H](CCCNC(=N)N)NC(=O)[C@H](CCC(N)=O)NC(=O)[C@@H](NC(=O)[C@H](C)NC(=O)[C@@H]1CSSC[C@H](NC(=O)[C@H](CCCNC(=N)N)NC(=O)CC[C@H](NC(=O)CCCCCCCCCCCCCCCCCCC(=O)O)C(=O)O)C(=O)N[C@@H](CC(N)=O)C(=O)N[C@@H]([C@@H](C)O)C(=O)N[C@@H](C)C(=O)N[C@@H]([C@@H](C)O)C(=O)N1)[C@@H](C)O)C(=O)N[C@@H](CC(C)C)C(=O)N1CCC[C@H]1C(=O)N1CCC[C@H]1C(=O)N[C@H](C(=O)N[C@@H](CC(N)=O)C(=O)N[C@H](C(=O)NCC(=O)N[C@@H](CO)C(=O)N[C@@H](CC(N)=O)C(=O)N[C@H](C(=O)N1CCC[C@H]1C(N)=O)[C@@H](C)O)C(C)C)[C@@H](C)O` [PD197] ({C20 diacid-γGlu}-RCNTATCATQRLADFLRHSSNNLRPILPPTNVGSNTP-NH2; disulfide 2-7 (inferred)), for which the EC50 came out at 0.025 nM.

Values taken from patent US20260166128A1, “HUMAN AMYLIN ANALOG, AND DERIVATIVE THEREOF AND USE THEREOF” (priority 2022, published 2026).
